Here are results for 24 compounds from patent US9040532B2, “Alpha adrenergic receptor modulators” (Allergan, Inc., priority 2009, dated 2015).

Common to all, as to assay type: cell-based
Experiment [1] has as its target T1, Alpha 2C (Homo sapiens, UniProt P18825).
T1 sequence (P18825 1-462): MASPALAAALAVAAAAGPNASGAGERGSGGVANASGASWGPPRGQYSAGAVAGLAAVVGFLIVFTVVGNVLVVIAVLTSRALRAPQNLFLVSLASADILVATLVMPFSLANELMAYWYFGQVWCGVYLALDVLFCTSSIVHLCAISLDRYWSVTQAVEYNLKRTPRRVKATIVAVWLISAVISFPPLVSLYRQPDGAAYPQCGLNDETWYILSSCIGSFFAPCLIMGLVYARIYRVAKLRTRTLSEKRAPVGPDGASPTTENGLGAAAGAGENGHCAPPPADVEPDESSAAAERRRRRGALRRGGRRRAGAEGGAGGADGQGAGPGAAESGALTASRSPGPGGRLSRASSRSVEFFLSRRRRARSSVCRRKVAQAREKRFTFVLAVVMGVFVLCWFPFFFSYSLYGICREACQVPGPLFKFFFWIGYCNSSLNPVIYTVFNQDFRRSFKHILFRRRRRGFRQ
The experiment in a line: FLIPR assay, intracellular Ca2+ mobilization, alpha 2C. The note with it: for EC50: agonist, read-out: Alpha 2C Potency (EC50); for Alpha 2C relative efficacy compared to a standard full agonist: value in parentheses. On the procedure: (§1) Cells are loaded into a plate reader with a Ca^2+ dye indicator and incubated with various compounds. This assay is adequate for monitoring the intracellular Ca^2+ mobilization from fluorescent readings to evaluate receptor agonists.
In general terms: Calcium assays in cells follow changes in intracellular calcium, usually with a dye or a luminescent sensor.

The target in experiment [2] is T2, Alpha 2B (Homo sapiens, UniProt P18089).
T2 sequence (P18089 1-450): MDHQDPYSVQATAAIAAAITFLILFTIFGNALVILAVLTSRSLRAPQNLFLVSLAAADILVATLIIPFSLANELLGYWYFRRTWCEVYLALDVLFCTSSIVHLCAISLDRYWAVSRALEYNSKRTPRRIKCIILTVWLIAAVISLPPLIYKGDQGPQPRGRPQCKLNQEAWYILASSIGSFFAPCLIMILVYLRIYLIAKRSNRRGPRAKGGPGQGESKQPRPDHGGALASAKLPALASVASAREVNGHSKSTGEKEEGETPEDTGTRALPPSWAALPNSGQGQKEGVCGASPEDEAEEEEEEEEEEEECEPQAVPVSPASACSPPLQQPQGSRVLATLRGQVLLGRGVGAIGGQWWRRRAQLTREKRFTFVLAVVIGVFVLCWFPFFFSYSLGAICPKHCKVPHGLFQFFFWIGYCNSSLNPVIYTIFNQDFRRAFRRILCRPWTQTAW
The experiment in a line: FLIPR assay, intracellular Ca2+ mobilization, alpha 2B. The conditions noted are these: FLIPR; for EC50: agonist, read-out: Alpha 2B Potency (EC50); for Alpha 2B relative efficacy compared to a standard full agonist: value in parentheses. On the procedure:
as §1

The target of experiment [3] is T3, Alpha 2A (Homo sapiens, UniProt P08913).
T3 sequence (P08913 1-465): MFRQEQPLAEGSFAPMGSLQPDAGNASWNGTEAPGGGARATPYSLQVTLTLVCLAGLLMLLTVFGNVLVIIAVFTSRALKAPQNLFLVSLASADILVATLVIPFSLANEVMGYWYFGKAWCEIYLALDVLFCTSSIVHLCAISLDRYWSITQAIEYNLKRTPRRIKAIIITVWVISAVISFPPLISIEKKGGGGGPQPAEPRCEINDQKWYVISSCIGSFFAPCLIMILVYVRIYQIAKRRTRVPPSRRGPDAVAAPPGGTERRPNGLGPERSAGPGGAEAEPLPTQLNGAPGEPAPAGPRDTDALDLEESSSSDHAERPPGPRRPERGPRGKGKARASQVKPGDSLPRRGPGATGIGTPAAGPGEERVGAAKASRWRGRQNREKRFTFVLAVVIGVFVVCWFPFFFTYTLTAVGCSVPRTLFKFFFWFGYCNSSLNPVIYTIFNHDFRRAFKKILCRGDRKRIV
The experiment can be described thus: FLIPR assay, intracellular Ca2+ mobilization, alpha 2A. The note with it: for EC50: agonist, read-out: Alpha 2A Potency (EC50); for Alpha 2A relative efficacy compared to a standard full agonist: value in parentheses. On the procedure:
The compounds described herein were tested for alpha adrenergic activity using a Fluorometric Imaging plate Reader (FLIPR) assay (Princen et al., 2003, Cytometry Part A. 51, pp. 35-45). Cells are loaded into a plate reader with a Ca^2+ dye indicator and incubated with various compounds. This assay is adequate for monitoring the intracellular Ca^2+ mobilization from fluorescent readings to evaluate receptor agonists. […] The compounds described herein activate alpha adrenergic receptors.

By EC50 is commonly meant the concentration needed to bring the measured effect to its halfway point.

Structures are written as SMILES.

With `c1nc2cc(NC3=NCCC3)ccc2[nH]1` [Compound 4, N-(3,4-Dihydro-2H-pyrrol-5-yl)-1H-benzimidazol-5-amine], in experiment [1], the EC50 turned out to be 142 nM and the “Alpha 2C relative efficacy compared to a standard full agonist” value (“Alpha 2C relative efficacy” for short) is “(1.06)”. Further, in experiment [2], the 50% effective concentration (EC50) amounted to 714 nM and the “Alpha 2B relative efficacy compared to a standard full agonist” value (“Alpha 2B relative efficacy” below) was “(0.19)”.
For the compound `c1cc(NC2=NCCC2)c2[nH]ccc2c1` [Compound 22, N-(3,4-Dihydro-2H-pyrrol-5-yl)-1H-indol-7-amine], in experiment [1], the EC50 is 2160 nM and the “Alpha 2C relative efficacy” value is given as “(0.61)”.
On to `c1ccc2c(c1)CCC[C@@H]2NC1=NCCC1` [Compound 34, N-[(1S)-1,2,3,4-Tetrahydronaphthalen-1-yl]-3,4-dihydro-2H-pyrrol-5-amine], for which, in experiment [1], the EC50 was 221 nM and the “Alpha 2C relative efficacy” value is reported as “(0.8)”. Moreover, in experiment [2], the half-maximal effective concentration (EC50) stood at 163 nM and the “Alpha 2B relative efficacy” value is given as “(0.43)”.
For the compound `c1cc(NC2=NCCC2)c2cc[nH]c2c1` [Compound 25, N-(3,4-Dihydro-2H-pyrrol-5-yl)-1H-indol-4-amine], in experiment [1], the concentration giving a half-maximal response (EC50) is less than 10 nM and the “Alpha 2C relative efficacy” value is “(0.99)”. Also, in experiment [2], the EC50 amounted to 152 nM and the “Alpha 2B relative efficacy” value is given as “(0.42)”. In addition, in experiment [3], the EC50 was found to be 115 nM and the “Alpha 2A relative efficacy compared to a standard full agonist” value is listed as “(0.7)”.
`Clc1ccc(NC2=NCCC2)c2ccccc12` [Compound 7, N-(4-Chloro-1-naphthyl)-3,4-dihydro-2H-pyrrol-5-amine]: in experiment [1], the EC50 amounted to 672 nM and the “Alpha 2C relative efficacy” value is given as “(0.84)”. In experiment [2], the concentration for a half-maximal effect (EC50) is 1070 nM and the “Alpha 2B relative efficacy” value was “(0.33)”.
Regarding `c1cc(NC2=NCCC2)c2cnccc2c1` [Compound 32, N-(3,4-Dihydro-2H-pyrrol-5-yl)isoquinolin-8-amine], in experiment [1], the concentration for a half-maximal effect (EC50) stood at 643 nM and the “Alpha 2C relative efficacy” value is “(0.95)”.
The matching figures for `c1nc2c(cc1NC1=NCCC1)CCC2` [Compound 5, N-(3,4-Dihydro-2H-pyrrol-5-yl)-6,7-dihydro-5H-cyclopenta[b]pyridin-3-amine]: 1280 nM and “(0.86)”.
In the case of `Clc1cc(NC2=NCCC2)cc2nc[nH]c12` [Compound 13, 7-Chloro-N-(3,4-dihydro-2H-pyrrol-5-yl)-1H-benzimidazol-5-amine], in experiment [1], the EC50 was found to be 435 nM and the “Alpha 2C relative efficacy” value is recorded as “(0.98)”. Also, in experiment [2], the concentration for a half-maximal effect (EC50) came out at 1840 nM and the “Alpha 2B relative efficacy” value was “(0.35)”.
Taken in the same sequence, the figures for `Brc1ccc(NC2=NCCC2)c2ccccc12` [Compound 3, N-(4-Bromo-1-naphthyl)-3,4-dihydro-2H-pyrrol-5-amine] were 833 nM, “(0.85)”, 700 nM and “(0.15)”.
`c1ccc2c(c1)CC[C@@H]2NC1=NCCC1` [Compound 33, N-[(1S)-2,3-Dihydro-1H-inden-1-yl]-3,4-dihydro-2H-pyrrol-5-amine]: in experiment [1], the concentration giving a half-maximal response (EC50) is 281 nM and the “Alpha 2C relative efficacy” value is recorded as “(0.68)”.
The matching figures for `c1cnc2cc(NC3=NCCC3)ccc2n1` [Compound 14, N-(3,4-Dihydro-2H-pyrrol-5-yl)quinoxalin-6-amine]: 2740 nM and “(0.66)”.
For `c1cnc2c(NC3=NCCC3)cccc2c1` [Compound 30, N-(3,4-dihydro-2H-pyrrol-5-yl)quinolin-8-amine], in experiment [1], the 50% effective concentration (EC50) turned out to be 2970 nM and the “Alpha 2C relative efficacy” value is given as “(0.71)”.
The matching figures for `c1cnc2cc(NC3=NCCC3)ccc2c1` [Compound 28, N-(3,4-Dihydro-2H-pyrrol-5-yl)quinolin-7-amine]: 104 nM and “(0.96)”.
The matching figures for `Clc1c(/N=C2\CCCN2)cnc2cccnc12` [Compound 6, 4-Chloro-N-[(2E)-pyrrolidin-2-ylidene]-1,5-naphthyridin-3-amine]: 2600 nM and “(0.59)”.
Taken in the same sequence, the figures for `c1cc2cc(NC3=NCCC3)ccc2o1` [Compound 24, N-1-Benzofuran-5-yl-3,4-dihydro-2H-pyrrol-5-amine] were 630 nM and “(0.51)”.
In the case of `Cc1c(/N=C2\CCCN2)cnc2[nH]ccc12` [Compound 38, 4-Methyl-N-[(2E)-pyrrolidin-2-ylidene]-1H-pyrrolo[2,3-b]pyridin-5-amine], in experiment [1], the EC50 is 22 nM and the “Alpha 2C relative efficacy” value is “(0.9)”. In experiment [3], the EC50 was determined as 555 nM and the “Alpha 2A relative efficacy compared to a standard full agonist” value is “(0.79)”.
Turning to `c1cc2ccc(NC3=NCCC3)cc2[nH]1` [Compound 21, N-(3,4-Dihydro-2H-pyrrol-5-yl)-1H-indol-6-amine], in experiment [1], the half-maximal effective concentration (EC50) was 280 nM and the “Alpha 2C relative efficacy” value is on record as “(0.75)”.
The matching figures for `c1cc2cc(NC3=NCCC3)ccc2s1` [Compound 23, N-1-Benzothien-5-yl-3,4-dihydro-2H-pyrrol-5-amine]: 89 nM and “(0.66)”.
Turning to `c1cc2cc(NC3=NCCC3)ccc2[nH]1` [Compound 17, N-(3,4-Dihydro-2H-pyrrol-5-yl)-1H-indol-5-amine], in experiment [1], the EC50 stood at 9 nM and the “Alpha 2C relative efficacy” value is reported as “(0.9)”. Also, in experiment [2], the EC50 stood at 10 nM and the “Alpha 2B relative efficacy” value is “(0.15)”.
The matching figures for `Cc1c(NC2=NCCC2)ccc2[nH]ccc12` [Compound 18, N-(3,4-Dihydro-2H-pyrrol-5-yl)-4-methyl-1H-indol-5-amine]: 69 nM, “(0.9)”, 39 nM and “(0.18)”.
The matching figures for `Cc1cc(NC2=NCCC2)cc2cc[nH]c12` [Compound 19, N-(3,4-Dihydro-2H-pyrrol-5-yl)-7-methyl-1H-indol-5-amine]: 12 nM, “(0.85)”, 142 nM and “(0.29)”.
On to `c1cc2c(c(NC3=NCCC3)c1)CCC2` [Compound 16, N-(2,3-Dihydro-1H-inden-4-yl)-3,4-dihydro-2H-pyrrol-5-amine], for which, in experiment [1], the concentration giving a half-maximal response (EC50) turned out to be 123 nM and the “Alpha 2C relative efficacy” value was “(0.85)”.
As to `Brc1cc(NC2=NCCC2)cc2cc[nH]c12` [Compound 20, 7-Bromo-N-(3,4-dihydro-2H-pyrrol-5-yl)-1H-indol-5-amine], in experiment [1], the EC50 turned out to be 12 nM and the “Alpha 2C relative efficacy” value is listed as “(0.95)”. In addition, in experiment [2], the half-maximal effective concentration (EC50) is 79 nM and the “Alpha 2B relative efficacy” value is reported as “(0.61)”.
Taken in the same sequence, the figures for `Fc1cccc2c1C(NC1=NCCC1)CC2` (centres unmarked) [Compound 35, N-(7-Fluoro-2,3-dihydro-1H-inden-1-yl)-3,4-dihydro-2H-pyrrol-5-amine] were 560 nM, “(0.87)”, 618 nM and “(0.44)”.
